Source: patent US20230012368A1 (Hoffmann-La Roche Inc., priority 2018, published 2023)
Structures can show the parent of a compound that is named as a salt.

system: Acinetobacter baumannii ATCC 17978; assay: Antimicrobial susceptibility testing: 90% growth inhibitory concentration (IC90) determination; assay type: cell-based; conditions: 90% growth inhibitory concentration; Acinetobacter baumannii ATCC17978; Iso-Sensitest broth, OD 600 nm over 16h; read-out: ATCC17978 IC90
Procedure, shortened: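 Compounds serially twofold diluted (e.g. 50 to 0.097 μM final) in Iso-Sensitest broth, inoculated at ~5×10^(5) CFU/ml, incubated at 35±2° C. OD600 read every 20 minutes over 16h. IC90 taken as concentration inhibiting 90% of growth during logarithmic phase.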

Q: Which IC90 does the source give for `CCc1cc(Nc2nccn3c(-c4ccc(OC(F)F)c(F)c4F)cnc23)ccc1C(=O)NC(CCN)C(F)F` (stereo not shown) [Example 315, N-(4-amino-1,1-difluorobutan-2-yl)-4-[[3-[4-(difluoromethoxy)-2,3-difluorophenyl]imidazo[1,2-a]pyrazin-8-yl]amino]-2-ethylbenzamide; hydrochloride] here?
A: The IC90 was 1300 nM.

Q: How did the IC90 turn out when `CCc1cc(Nc2nccn3c(-c4ccc(OC)c(F)c4F)cnc23)ccc1C(=O)NCCCN` [Example 118, N-(3-aminopropyl)-4-((3-(2,3-difluoro-4-methoxyphenyl)imidazo[1,2-a]pyrazin-8-yl)amino)-2-ethylbenzamide dihydrochloride] was run?
A: The IC90 was 450 nM.

Q: How did the IC90 turn out when `CCc1cc(Nc2nccn3c(-c4ccc(Oc5ccc(OCCCN)cn5)c(F)c4F)cnc23)ccc1C(=O)NC` [Example 511, 4-[[3-[4-[[5-(3-aminopropoxy)-2-pyridyl]oxy]-2,3-difluoro-phenyl]imidazo[1,2-a]pyrazin-8-yl]amino]-2-ethyl-N-methyl-benzamide; formic acid] was run?
A: Its IC90 is 480 nM.

Q: Which IC90 does the source give for `CCc1cc(Nc2nccn3c(-c4ccc(Oc5ccc(C(=O)NCCN)cn5)c(F)c4F)cnc23)ccc1C(=O)NC` [Example 490, N-(2-aminoethyl)-6-[4-[8-[3-ethyl-4-(methylcarbamoyl)anilino]imidazo[1,2-a]pyrazin-3-yl]-2,3-difluoro-phenoxy]pyridine-3-carboxamide; formic acid] here?
A: The IC90 was 450 nM.

same assay, conditions: Acinetobacter baumannii, ATCC17978, 16 h, 90% growth inhibitory concentration; Acinetobacter baumannii ATCC17978; Iso-Sensitest broth, OD 600 nm over 16h; read-out: ATCC17978 IC90

Q: `Cc1cc(Nc2nccn3c(-c4ccc(OCC#N)c(F)c4F)cnc23)ccc1C(=O)NCCCNC(=O)[C@@H]1C[C@](C)(O)CN1` [Example 134, (2S,4S)-N-[3-[[4-[[3-[4-(cyanomethoxy)-2,3-difluoro-phenyl]imidazo[1,2-a]pyrazin-8-yl]amino]-2-methyl-benzoyl]amino]propyl]-4-hydroxy-4-methyl-pyrrolidine-2-carboxamide formate] was tested. Which IC90 did it give?
A: The IC90 was 80 nM.

Q: `CCc1cc(Nc2nccn3c(-c4ccc(OC)c(F)c4F)cnc23)ccc1C(=O)NCC1CN(C(=O)CN)C1` [Example 532, N-[[1-(2-aminoacetyl)azetidin-3-yl]methyl]-4-[[3-(2,3-difluoro-4-methoxy-phenyl)imidazo[1,2-a]pyrazin-8-yl]amino]-2-ethyl-benzamide; formic acid] was tested. Which IC90 did it give?
A: The IC90 was 61 nM.

Q: Which IC90 does the source give for `CCc1cc(Nc2nccn3c(-c4ccc(Oc5ccncn5)c(F)c4F)cnc23)ccc1C(=O)NCCCNC(=O)CCCNCCCN` [Example 563, N-[3-[4-(3-aminopropylamino)butanoyl-amino]propyl]-4-[[3-(2,3-difluoro-4-pyrimidin-4-yloxy-phenyl)imidazo[1,2-a]pyrazin-8-yl]amino]-2-ethyl-benzamide; formic acid] here?
A: The IC90 was 190 nM.

Q: For `CCN(CC)C(=O)c1ccc(Nc2nccn3c(-c4ccc(OC)cc4)cnc23)cc1` [Example 227, N,N-diethyl-4-[[3-(4-methoxyphenyl)imidazo[1,2-a]pyrazin-8-yl]amino]benzamide], which IC90 is on record?
A: Its IC90 is 610 nM.

Q: `CNC(=O)c1ccc(Nc2nccn3c(-c4ccc(OC(F)F)cc4)cnc23)cc1C1CC1` [Example 167, 2-cyclopropyl-4-[[3-[4-(difluoromethoxy)phenyl]imidazo[1,2-a]pyrazin-8-yl]amino]-N-methyl-benzamide] was tested. Which IC90 did it give?
A: Its IC90 is 1100 nM.

Q: Which IC90 does the source give for `COc1ccc(-c2cnc3c(Nc4ccc(C(=O)N[C@@H](C)CNC(=N)C(C)C)c(C)c4)nccn23)c(F)c1F` [Example 499, 4-[[3-(2,3-difluoro-4-methoxyphenyl)imidazo[1,2-a]pyrazin-8-yl]amino]-2-methyl-#N!-[(2#S!)-1-(2-methylpropanimidoylamino)propan-2-yl]benzamide] here?
A: The IC90 was 300 nM.

Q: How did the IC90 turn out when `CCc1cc(Nc2nccn3c(-c4ccc(Oc5ccccn5)c(F)c4F)cnc23)ccc1C(=O)NCCCCC(=O)N1CCN[C@H](CO)C1` [Example 477, 4-[[3-[2,3-difluoro-4-(2-pyridyloxy)phenyl]imidazo [1,2-a]pyrazin-8-yl]amino]-2-ethyl-N-[5-[(3S)-3-(hydroxymethyl)piperazin-1-yl]-5-oxo-pentyl]benzamide] was run?
A: Its IC90 is 330 nM.

Q: Which IC90 does the source give for `CCc1cc(Nc2nccn3c(-c4ccc(OC)c(F)c4F)cnc23)ccc1C(=O)NCC1CCN(C(=O)C2CCNCC2)CC1` [Example 546, 4-((3-(2,3-difluoro-4-methoxyphenyl)imidazo[1,2-a]pyrazin-8-yl)amino)-2-ethyl-N-((1-(piperidine-4-carbonyl)piperidin-4-yl)methyl)benzamide 2,2,2-trifluoroacetate] here?
A: Its IC90 is 70 nM.

Q: For `Cc1cc(Nc2nccn3c(-c4ccc(OC(F)F)cc4)cnc23)ccc1C(=O)N(C)CCN1CCOC(C)(C)C1` [Example 255, 4-[[3-[4-(difluoromethoxy)phenyl]im-idazo[1,2-a]pyrazin-8-yl]amino]-N-[2-(2,2-dimethylmorpholin-4-yl)ethyl]-N,2-dimethylbenzamide], which IC90 is on record?
A: The IC90 was 2200 nM.

Q: With `CCc1cc(Nc2nccn3c(-c4ccc(OCC#N)c(F)c4F)cnc23)ccc1C(=O)NCCNC(=O)CC(O)CN` (stereo not shown) [Example 142, N-[2-[(4-amino-3-hydroxy-butanoyl)amino]ethyl]-4-[[3-[4-(cyanomethoxy)-2,3-difluoro-phenyl]imidazo[1,2-a]pyrazin-8-yl]amino]-2-ethyl-benzamide formate] as the compound, how does the IC90 read?
A: Its IC90 is 130 nM.

Q: `CCc1cc(Nc2nccn3c(-c4ccc(OC)c(F)c4F)cnc23)ccc1C(=O)NCCCCCc1nnc2ccccn12` [Example 533, N-(5-([1,2,4]triazolo[4,3-a]pyridin-3-yl)pentyl)-4-((3-(2,3-difluoro-4-methoxyphenyl)imidazo[1,2-a]pyrazin-8-yl)amino)-2-ethylbenzamide] was tested. Which IC90 did it give?
A: Its IC90 is 100 nM.

Q: How did the IC90 turn out when `COc1ccc(-c2cnc3c(Nc4ccc(C(=O)N(C)CC(=O)N(C)C)c(C)c4)nccn23)cc1F` [Example 7, N-[2-(dimethylamino)-2-oxo-ethyl]-4-[[3-(3-fluoro-4-methoxy-phenyl)imidazo[1,2-a]pyrazin-8-yl]amino]-N,2-dimethyl-benzamide] was run?
A: Its IC90 is 1900 nM.

Q: With `COc1ccc(-c2cnc3c(Nc4ccc(C(=O)NCCCCCNC(=O)OC(C)(C)C)c(C)c4)nccn23)cc1` [Example 223, tert-butyl N-[5-[[4-[[3-(4-methoxyphenyl)imidazo[1,2-a]pyrazin-8-yl]amino]-2-methylbenzoyl]amino]pentyl] carbamate] as the compound, how does the IC90 read?
A: The IC90 was 1100 nM.

Q: With `COc1ccc(-c2cnc3c(Nc4ccc(C(=O)N[C@H](C)CNC(C)=N)c(C)c4)nccn23)c(F)c1F` [Example 486, 4-[[3-(2,3-difluoro-4-methoxyphenyl)imidazo[1,2-a]pyrazin-8-yl]amino]-#N!- [(2#R!)-1-(ethanimidoylamino)propan-2-yl]-2-methylbenzamide;formic acid] as the compound, how does the IC90 read?
A: Its IC90 is 68 nM.

Q: `COc1ccc(-c2cnc3c(Nc4ccc5c(c4)CCN(C)C5=O)nccn23)cc1F` [Example 274, 6-[[3-(3-fluoro-4-methoxyphenyl)imidazo[1,2-a]pyrazin-8-yl]amino]-2-methyl-3,4-dihydroisoquinolin-1-one] was tested. Which IC90 did it give?
A: Its IC90 is 240 nM.

Q: Which IC90 does the source give for `COc1ccc(-c2cnc3c(Nc4ccc(C(=O)NCCCN(C)C)cc4)nccn23)cc1Cl` [Example 263, 4-[[3-(3-chloro-4-methoxyphenyl)imidazo[1,2-a]pyrazin-8-yl]amino]-N-[3-(dimethylamino)propyl]benz-amide] here?
A: The IC90 was 5000 nM.

Q: Which IC90 does the source give for `Cc1cc(Nc2nccn3c(-c4ccc(OC(F)F)cc4)cnc23)ccc1C(=O)NCCNC(=O)N1CCNCC1` [Example 345, N-[2-[[4-[[3-[4-(difluoromethoxy)phenyl]im-idazo[1,2-a]pyrazin-8-yl]amino]-2-methylbenzoyl]amino]ethyl] piperazine-1-carboxamide] here?
A: Its IC90 is 900 nM.

Q: For `CNC(=O)c1ccc(Nc2nccn3c(-c4ccc(OC(F)F)cc4)cnc23)cc1Cl` [Example 110, 2-chloro-4-((3-(4-(difluoromethoxy)phenyl)imidazo[1,2-a]pyrazin-8-yl)amino)-N-methylbenzamide], which IC90 is on record?
A: Its IC90 is 250 nM.

Q: How did the IC90 turn out when `CCc1cc(Nc2nccn3c(-c4ccc(Cl)c(F)c4F)cnc23)ccc1C(=O)NCC1CCNC1` (stereo not shown) [Example 277, 4-[[3-(4-chloro-2,3-difluorophenyl)imidazo[1,2-a]pyrazin-8-yl]amino]-2-ethyl-N-(pyrrolidin-3-ylmethyl)benzamide;hydrochlo-ride] was run?
A: The IC90 was 700 nM.

Q: Which IC90 does the source give for `COc1ccc(-c2cnc3c(Nc4ccc(C(=O)NCCCCN)c(C)c4)nccn23)c(F)c1F` [Example 513, N-(4-aminobutyl)-4-((3-(2,3-difluoro-4-methoxyphenyl)imidazo[1,2-a]pyrazin-8-yl)amino)-2-methylbenzamide hydrochloride] here?
A: Its IC90 is 50 nM.

Q: For `CNC(=O)c1ccc(Nc2nccn3c(-c4ccc(OC(F)F)cc4)cnc23)cc1COCCO` [Example 168, 4-[[3-[4-(difluoromethoxy)phenyl]imidazo[1,2-a]pyrazin-8-yl]amino]-2-(2-hydroxyethoxymethyl)-N-methyl-benzamide], which IC90 is on record?
A: Its IC90 is 2000 nM.

Q: `CCc1cc(Nc2nccn3c(-c4ccc(OC)c(F)c4F)cnc23)ccc1C(=O)NCCN1CCC(C(N)=O)C1` (stereo not shown) [Example 561, 1-[2-[[4-[[3-(2,3-difluoro-4-methoxy-phenyl)imidazo[1,2-a]pyrazin-8-yl]amino]-2-ethyl-benzoyl]amino]ethyl]pyrroli-dine-3-carboxamide] was tested. Which IC90 did it give?
A: The IC90 was 190 nM.

Q: For `COc1ccc(-c2cnc3c(Nc4cc(F)c(C(=O)NCCCN)c(Cl)c4)nccn23)c(F)c1F` [Example 436, N-(3-aminopropyl)-2-chloro-4-((3-(2,3-difluoro-4-methoxyphenyl)imidazo[1,2-a]pyrazin-8-yl)amino)-6-fluorobenzamide], which IC90 is on record?
A: The IC90 was 650 nM.

Q: With `CCc1cc(Nc2nccn3c(-c4ccc(OCC#CCN)c(F)c4F)cnc23)ccc1C(=O)NCCCN` [Example 287, 4-[[3-[4-(4-aminobut-2-ynoxy)-2,3-difluorophenyl]imidazo[1,2-a]pyrazin-8-yl]amino]-N-(3-aminopropyl)-2-ethylbenzamide] as the compound, how does the IC90 read?
A: Its IC90 is 2900 nM.
